These results are taken from patent US10226465B2, “Composition for use in increasing engraftment efficacy of haematopoetic stem cells after transplantation” (priority 2015, dated 2019).

Test [1] relates to murine haematopoetic progenitor cells. Nature of the test: In vitro migration assay (Transwell, towards SDF-1/CXCL12), murine cells. Format: cell-based. The note with it: 100 ng/ml murine SDF-1, 4 h; for SDF-1/CXCL12-induced migration of Treprostinil+forskolin-stimulated cells: 10 μM AMD3100.
Method: Murine haematopoetic progenitor cells were pretreated in vitro with the combination of 10 μM Treprostinil (Trep) and 30 μM forskolin (Fsk) (Sigma Aldrich, Vienna, Austria) or vehicle for 1 h at 37° C. in growth factor containing stem cell medium [(StemSpan™ (SFEM) (Stemcell technologies, USA) (50 ng/mL murine stem cell factor (SCF), 50 ng/mL fms-like tyrosine kinase-3 ligand (Flt3), 50 ng/mL interleukin 11 (IL11) and 150 ng/mL murine interleukin 3 (mIL3)] purchased from PeproTech (London, United Kingdom)). Thereafter cells were washed and resuspended at 2×10^6 cells/mL in medium.
The cell suspension (0.1 mL containing 2×10^5 cells) was added to the upper chamber of Transwell™ dishes (5 μm pore diameter). The bottom chamber was followed with medium or medium containing 100 ng/ml murine stromal derived factor-1 (SDF-1=CXCL12). Cells were allowed to migrate for 4 h at 37° C. Subsequently, the number of cells recovered from the lower chamber was determined by a cell counter. The number of migrated cells was expressed as percentage of total cells added to the upper chamber.
Hematopoietic stem and progenitor cells were preincubated with Treprostinil (10 μM; T) and forskolin (30 μM; F) for 1 h at 37° C., washed and resuspended at a cell density of 2×10^6 cells/mL. The cell suspension (2×10^5 cells in 0.1 mL) was added to the upper chamber the Transwell™ dish, which contained medium with and without 10 ΞM CXCR4 antagonist AMD3100 (10 μM). The medium in the lower chamber contained 100 ng/ml murine SDF-1. The incubation lasted for 4 h at 37° C.; thereafter cells recovered in the lower chamber were counted as outlined in the legend to FIG. 1. Data shown are means±SEM from three independent experiments carried out in triplicate. Statistically significant differences were assessed by one way ANOVA followed by Dunnett's multiple comparisons (***, p<0.001).
The test system of test [2] is lethally irradiated recipient BALB/c mice. Kind of test: Bone marrow transplantation (survival of recipient mice, Example 6). Format: in vivo. The protocol:
These were subsequently divided in two groups. Mice allocated to group 1 (n=10) were further subjected to in vivo treatment with Treprostinil (0.15 mg kg^−1 8 h^−1) whereas mice in group 2 (n=10) received both Treprostinil (0.15 mg kg^−1 8 h^−1) and AMD3100 (3.3 mg kg^−1 8 h^−1) by subcutaneous injection every 8 h for 10 days.
Isogenic recipient mice (C57BL/6 or BALB/c) were subjected to lethal irradiation. […] Lin^− (Sca1^+ and c-Kit^+) HSPCs cells were prepared as outlined above and were pretreated ex vivo in the absence and presence of the combination of 10 μM Treprostinil+30 μM forskolin (FSK) for 1 h at 37° C. Thereafter, the cells (1-5*10^5/mouse) were injected via the tail vein. White blood cell counts were determined by FACS, blood samples were collected every 3 to 5 days starting on day 9 (where blood cell count was ˜1 G/L. In some instances, mice (25-30 g) were also treated with (i) Treprostinil (0.15 mg kg 8 h^−1) and vildagliptin (10 mg kg−^1 12 h^−1) or with the combination of both administered subcutaneously every 8 h for 10 days.
If this was the case, the action of vildagliptin ought to be blunted by simultaneous administration of AMD3100/plerixafor. An experiment was done with seven groups of recipient BALB/c mice (5/group). Several of these groups were internal controls, which were included to verify that earlier findings were recapitulated. […] It is stressed that all conditions were tested in parallel, thus a comparison is legitimate.
Murine HPSCs isolated from donor BALB/c mice were treated in vitro with 10 μM Treprostinil and 30 μM forskolin or vehicle (solid line) for 1 h at 37° C. After washing, 2×10^5 cells were injected into lethally irradiated (10 Gy) recipient BALB/c mice. […] Another group of mice (dotted lines/triangles; n=20) received HSPCs pretreated with 10 μM Treprostinil and 30 μM forskolin, and were also treated in vivo with Treprostinil (0.15 mg kg−1 8 h−1). The next group of mice (dotted lines/squares; n=20) again received in vitro HSPCs pretreated with forskolin+Treprostinil and were further treated in vivo with both Treprostinil (0.15 mg kg^−1 8 h^−1) and vildagliptin (10 mg/kg/24 h). Finally, a group of mice (dashed lines/circles; n=20) received in vitro HSPCs pretreated with forskolin+Treprostinil and were treated in vivo with vildagliptin (10 mg kg−1 per day). In vivo treatment was done by subcutaneous injections, it was initiated directly after transplantation and continued for 10 days.

The subject of test [3] is lethally irradiated recipient C57Bl/6 (CD45.2+) mice. Nature of the test: Homing assay (CD45.1+ donor cells in bone marrow of CD45.2+ recipients, FACS, Example 6). Format: in vivo. The protocol: The lineage-negative HSPCs were isolated from whole bone marrow cells of donor mice B6.SJL-PtrcAPep3B/Boyl (CD45.1+) using MACS micro beads (see above). The cells were in vitro treated with 10 μM Treprostinil and 30 μM forskolin or vehicle control for 1 h at 37° C. After washing, 0.2×10^6 lineage-negative CD 45.1^+ cells were injected in to the lethally irradiated (10 Gy) recipient C57Bl/6 (CD45.2^+) mice. Recipient mice were also treated in vivo with either Treprostinil (0.15 mg kg 8 h^−1), vildagliptin (10 mg kg^−1) or with the combination of both drugs subcutaneously. Control mice were injected with the same volume of vehicle. The whole bone marrow cells were isolated from recipient mice 16 h after transplantation. After lysis of red blood cells, the cells were stained for CD45.1 and CD45.2 markers. The proportion of CD45.1^+ and CD45.2^+ cells in the bone marrow was determined by flow cytometry.
Given that DPP-IV inhibitors may be a suitable combination partner for Treprostinil, we explored whether the DPP-IV inhibitor vildagliptin enhanced the action of Treprostinil. This was first tested in an approach, which measured the ability of injected HSPCs to home into the bone marrow: HSPCs harvested from the bone marrow of CD 45.1+ donor mice were injected into isogenic CD45.2 recipients. The animals were sacrificed after 16 h and the amount of CD45.1+ cells, which were retrieved from their bone marrows was quantified by FACS.
The recipient mice were then divided in 7 groups. […] Mice allocated to group 3 received only in vitro-treated cells, those in group 4 were subjected—in addition—to in vivo Treprostinil (Trep, 0.15 mg kg^−1 8 h^−1). Mice assigned to group 5 were administered a combined in vivo treatment with Treprostinil (0.15 mg kg−1 8 h−1) and AMD3100 (3.3 mg kg^−1 8 h^−1). Mice in group 5 received in vivo both Treprostinil (0.15 mg kg^−1 8 h^−1) and vildagliptin (10 mg kg^−1/d), and finally mice in group 6 were subjected to in vivo vildagliptin. The ability of CD45.1+cells to home into the bone marrow was assessed after 16 h by analysing the bone marrow of the recipients by FACS. Data are as means±SEM (n=3). Statistical comparisons were done by ANOVA followed by Tukey's multiple comparison.

Test [4] deals with lethally irradiated recipient BALB/c mice. Nature of the test: In vivo engraftment assay (survival, Example 5). To be noted: 0.2×10^6 pretreated cells, 10/group. The protocol: Haematopoetic progenitor cells isolated from bone marrow of donor mice (BALB/c) as outlined in the legend to FIG. 4. The cells were treated in vitro with 10 μM Treprostinil and 30 μM forskolin or vehicle for 1 h at 37° C. After washing, 0.2×10^6 lineage-negative haematopoetic progenitor cells were injected via the tail vein into lethally irradiated (9 Gy) recipient BALB/c mice (10/group). If not pretreated in vitro with the combination of Treprostinil and forskolin, this number of haematopoetic progenitor cells is too low to rescue the recipient animals. Accordingly, the group of mice, which received cells that had not been pretreated, died within the first week (black line, CTRL). The limiting number of haematopoetic stem cells sufficed to rescue 50% of the mice, which had received pretreated cells and were then treated with Treprostinil (3 μg/8 h s.c. for 10 days; red curve labeled in vitro pretreated cells+in vivo treatment of recipient mice with Treprostinil). […] In contrast, mice, which received the combination of Treprostinil (3 μg/8 h) and vildagliptin (10 mg/kg/24 h) had the worst outcome of all recipient mice that had received pretreated cells: only 2 out of ten mice survived (grey line labeled in vitro pretreated cells+in vivo treatment of recipient mice with the combination of Treprostinil and vildagliptin). […]

For test [5] the test system is unchanged. Kind of test: In vivo homing assay (colony formation from recipient bone marrow, Example 4).
Test [6] concerns the target EP2 receptors (Homo sapiens, UniProt P43116). To be noted: read-out: Kd for activation of isolated EP2 receptors; cited from earlier work.
Test [7] concerns human haematopoetic CD34+ stem and progenitor cells. Kind of test: [3H]cAMP accumulation assay. To be noted: for cAMP response after pertussis toxin pretreatment: pertussis toxin 16 h, + 30 μM forskolin. Format: cell-based. The protocol: Human haematopoetic CD34+ stem and progenitor cells (HSPCs, 4*10^5/mL) were first preincubated for 16 h in the absence presence of 100 ng/ml pertussis toxin (Sigma Aldrich) in X-VIVO15 medium supplemented with growth factors followed by metabolic labelling of the adenine nucleotide pool by an additional 4 h incubation period in [^3H]adenine (Perkin Elmer, 1 μCi/mL) in the X-VIVO15 medium supplemented with growth factors and 10 μg/mL adenosine deaminase (Roche). Thereafter, the cells were challenged with 1 or 10 μM Treprostinil, 1 or 10 μM dimethyl-PGE2 (dmPGE2), forskolin (30 μM) or the combination of forskolin and prostanoids for 30 min. The cells were then pelleted (5 min at 100 g), the medium was removed and the pellet was lysed in ice-cold 2.5% perchloric acid (0.9 mL) containing 0.1 mM cAMP, held on ice for 1 h and neutralized with 4.2 M KOH (0.1 mL). ATP and cAMP were separated by sequential chromatography on columns containing Dowex AG50-X8 and neutral alumina (3).
After metabolic labelling with [3H]adenine, human HSPCs were stimulated with Treprostinil (Trep, 10 μM), dmPGE2 (10 μM) or forskolin (Fsk, 30 μM), the combination of Treprostinil (10 μM) or of dmPGE2 (10 μM) with forskolin (30 μM) as outlined under Materials and Methods. Where indicated HSPCs had been pretreated with pertussis toxin (PTX) for 16 h prior to stimulation. Data are from three independent experiments carried out in triplicate, error bars indicate s.e.m. […] This difference was abolished by pertussis toxin pretreatment (ns, not significant).
In general terms: Changes in cAMP serve as a functional read-out for many G protein-coupled receptors.

Setting [8] is: seven groups, 5/group, all received 2*10^5 Treprostinil+forskolin-pretreated HSPCs, in vivo treatment as named.
[9] abbreviates: pretreated HSPCs, recipients given Treprostinil in vivo plus the named drug (AMD3100 3.3 mg kg-1 8 h-1 or vildagliptin 10 mg kg-1/d).
Where [10] appears, read: Treprostinil+forskolin-treated cells, recipients treated in vivo (Treprostinil 3 μg/8 h, vildagliptin 10 mg/kg/24 h).
Where [11] appears, read: untreated cells, recipients treated in vivo (Treprostinil 3 μg/8 h, vildagliptin 10 mg/kg/24 h) from 24 h before transplantation.
The mark [12] stands for this setting: 2*10^5 Treprostinil+forskolin-pretreated HSPCs, in vivo s.c. for 10 days (Treprostinil 0.15 mg kg-1 8 h-1 or vildagliptin 10 mg kg-1 per day), n=20.
Setting [13] is: Treprostinil+forskolin-pretreated HSPCs, recipients given one drug in vivo (Treprostinil 0.15 mg kg-1 8 h-1 or vildagliptin 10 mg kg-1/d), 16 h.

Sequence of EP2 receptors (P43116 whole entry): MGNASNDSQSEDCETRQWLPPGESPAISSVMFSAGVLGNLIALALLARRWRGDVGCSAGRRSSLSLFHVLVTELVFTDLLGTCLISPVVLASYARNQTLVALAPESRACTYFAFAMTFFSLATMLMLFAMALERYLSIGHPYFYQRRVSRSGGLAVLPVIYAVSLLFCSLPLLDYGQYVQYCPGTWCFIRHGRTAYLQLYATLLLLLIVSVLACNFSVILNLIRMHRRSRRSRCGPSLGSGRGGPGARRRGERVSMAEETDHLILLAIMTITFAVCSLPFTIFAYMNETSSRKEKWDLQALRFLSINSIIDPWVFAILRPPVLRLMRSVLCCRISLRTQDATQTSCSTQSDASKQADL

On to `c1cc(CN2CCCNCCNCCCNCC2)ccc1CN1CCCNCCNCCCNCC1` [AMD3100], for which the figures for the “SDF-1/CXCL12-induced migration of Treprostinil+forskolin-stimulated cells” value in test [1] and in test [1] (listed as plerixafor/AMD3100) were “inhibits the SDF-1/CXCL12-induced migration” and “blocked”, respectively. For the same compound, the “survival of recipient mice” value in test [2] (pretreated HSPCs, AMD3100 3.3 mg kg-1 8 h-1 concomitant with Treprostinil 0.15 mg kg-1 8 h-1 s.c. 10 days, n=10) is given as “all recipient mice eventually succumbed to bone marrow failure”; in test [2] (setting [8]) it was “Enhances Survival”. Besides, the “homing of CD45.1+ cells into bone marrow” value in test [3] (setting [9]) is “abolished”.

As for `N#C[C@@H]1CCCN1C(=O)CNC12CC3CC(CC(O)(C3)C1)C2` [vildagliptin], in test [4] (in vivo s.c. for 10 days (vildagliptin 10 mg/24 h; combination Treprostinil 3 μg/8 h + vildagliptin 10 mg/kg/24 h)), the mice survived is 10 out of 10. For the same compound, the “SDF-1/CXCL12-induced migration of Treprostinil+forskolin-preincubated cells” value in test [1] (30 nM vildagliptin) is recorded as “enhances the SDF-1/CXCL12-induced migration”. Besides, the “homing into bone marrow (colonies)” value in test [5] (setting [10]) was “promoted homing”; in test [5] (setting [11]), “did not promote homing”. Moreover, the entries for the “survival of recipient mice” value in test [2] (setting [12]) and in test [2] (setting [8]) were 100% and “fared best”, respectively. Further, the “homing of CD45.1+ cells into bone marrow” value is recorded as “most pronounced increase in homing” in test [3] (setting [13]); “abrigated the homing effect of Treprostinil” in test [3] (setting [9]); “did not enhance homing” in test [3] (untreated HSPCs, recipients given vildagliptin 10 mg kg-1/d in vivo).

On to `CCCCC(C)(C)[C@H](O)/C=C/[C@H]1[C@H](O)CC(=O)[C@@H]1C/C=C\CCCC(=O)O` [dmPGE2, 16,16-dimethyl PGE2], for which the equilibrium dissociation constant (Kd) – broadly, the free concentration of one partner at which half of the binding sites on the other are occupied at equilibrium, for simple one-to-one binding – in test [6] is around 1 nM. Further, the “cAMP response after pertussis toxin pretreatment” value in test [7] is reported as “increased the response to dmPGE2”.

As for `CCCCC[C@H](O)CC[C@@H]1[C@H]2Cc3cccc(OCC(=O)[O-])c3C[C@H]2C[C@H]1O.[Na+]` [Treprostinil, (1R,2R,3aS,9aS)-[[2,3,3a,4,9,9a-hexahydro-2-hydroxy-1-[(3S)-3-hydroxyoctyl]-1H-benz[f]inden-5-yl]oxy]acetic acid monosodium salt], in test [4] (in vivo Treprostinil 3 μg/8 h s.c. for 10 days), the mice rescued came to 50%. Also, the entries for the “homing into bone marrow (colonies)” value in test [5] (setting [10]) and in test [5] (setting [11]) were “promoted homing” and “did not promote homing”, respectively. Further, the “cAMP in haematopoetic progenitor cells” value in test [7] is given as “stimulates cAMP”. Also, the “cAMP accumulation, efficacy compared” value in test [7] (10 μM, in the presence of 30 μM forskolin, 30 min) is “more efficacious than 10 μM dmPGE2”; in test [7] (absence or presence of 30 μM forskolin), “significantly more efficacious than dmPGE2”. Moreover, in test [7] (human haematopoetic stem and progenitor cells), the “span of concentration-response curve (cAMP)” value was “more than two orders of magnitude between 10 and 90% of the response”. In addition, in test [7], the “cAMP response after pertussis toxin pretreatment” value is “no significant difference”. Also, in test [2] (setting [12]), the “survival of recipient mice” value stood at 60%. In test [2] (noted previously, higher doses less beneficial than standard dose), the “shape of in vivo dose-response-curve for bone marrow engraftment” value is reported as “bell-shaped”. For the same compound, the “homing of CD45.1+ cells into bone marrow” value in test [3] (setting [13]) is “increased their homing into the bone marrow”.
